From BigSolDB 2.1

SMILES: Cn1cc[n+](CCC[n+]2ccn(C)c2)c1.F[P-](F)(F)(F)(F)F.F[P-](F)(F)(F)(F)F
- solubility (mole fraction) (in 2-butanone, 290.15 K): 0.00292
- solubility (mole fraction) (in 2-butanone, 294.15 K): 0.00339
- solubility (mole fraction) (in 2-butanone, 299.35 K): 0.00404
- solubility (mole fraction) (in 2-butanone, 303.15 K): 0.00458
- solubility (mole fraction) (in 2-butanone, 308.15 K): 0.00524
- solubility (mole fraction) (in 2-butanone, 313.25 K): 0.00598
- solubility (mole fraction) (in 2-butanone, 318.15 K): 0.00671
- solubility (mole fraction) (in 2-butanone, 323.15 K): 0.00738
- solubility (mole fraction) (in 2-butanone, 328.15 K): 0.00811
- solubility (mole fraction) (in 2-butanone, 335.25 K): 0.00913
- solubility (mole fraction) (in acetone, 289.15 K): 0.0365
- solubility (mole fraction) (in acetone, 293.15 K): 0.0401
- solubility (mole fraction) (in acetone, 296.65 K): 0.0433
- solubility (mole fraction) (in acetone, 301.15 K): 0.0485
- solubility (mole fraction) (in acetone, 306.15 K): 0.0551
- solubility (mole fraction) (in acetone, 310.15 K): 0.0605
- solubility (mole fraction) (in acetone, 315.15 K): 0.0681
- solubility (mole fraction) (in acetone, 321.15 K): 0.0772
- solubility (mole fraction) (in acetophenone, 289.15 K): 0.000417
- solubility (mole fraction) (in acetophenone, 293.15 K): 0.000461
- solubility (mole fraction) (in acetophenone, 296.65 K): 0.0005
- solubility (mole fraction) (in acetophenone, 302.15 K): 0.00056
- solubility (mole fraction) (in acetophenone, 307.15 K): 0.000619
- solubility (mole fraction) (in acetophenone, 312.15 K): 0.000683
- solubility (mole fraction) (in acetophenone, 317.35 K): 0.000743
- solubility (mole fraction) (in acetophenone, 321.65 K): 0.000807
- solubility (mole fraction) (in acetophenone, 328.15 K): 0.000899
- solubility (mole fraction) (in acetophenone, 333.15 K): 0.000996
- solubility (mole fraction) (in acetylacetone, 288.55 K): 0.000598
- solubility (mole fraction) (in acetylacetone, 293.15 K): 0.000876
- solubility (mole fraction) (in acetylacetone, 297.45 K): 0.0012
- solubility (mole fraction) (in acetylacetone, 302.65 K): 0.00172
- solubility (mole fraction) (in acetylacetone, 307.85 K): 0.00241
- solubility (mole fraction) (in acetylacetone, 313.15 K): 0.00325
- solubility (mole fraction) (in acetylacetone, 317.65 K): 0.00411
- solubility (mole fraction) (in acetylacetone, 323.15 K): 0.00532
- solubility (mole fraction) (in acetylacetone, 327.35 K): 0.00639
- solubility (mole fraction) (in acetylacetone, 334.65 K): 0.0084
- solubility (mole fraction) (in cyclohexanone, 289.65 K): 0.000151
- solubility (mole fraction) (in cyclohexanone, 294.15 K): 0.000222
- solubility (mole fraction) (in cyclohexanone, 299.15 K): 0.000331
- solubility (mole fraction) (in cyclohexanone, 303.15 K): 0.000443
- solubility (mole fraction) (in cyclohexanone, 308.15 K): 0.000622
- solubility (mole fraction) (in cyclohexanone, 313.25 K): 0.000852
- solubility (mole fraction) (in cyclohexanone, 318.15 K): 0.00112
- solubility (mole fraction) (in cyclohexanone, 323.15 K): 0.00143
- solubility (mole fraction) (in cyclohexanone, 328.15 K): 0.00181
- solubility (mole fraction) (in cyclohexanone, 333.15 K): 0.00224
- solubility (mole fraction) (in water, 289.15 K): 7.7e-05
- solubility (mole fraction) (in water, 293.15 K): 0.000102
- solubility (mole fraction) (in water, 297.65 K): 0.000137
- solubility (mole fraction) (in water, 304.75 K): 0.000216
- solubility (mole fraction) (in water, 309.35 K): 0.000289
- solubility (mole fraction) (in water, 313.25 K): 0.000366
- solubility (mole fraction) (in water, 317.15 K): 0.000454
- solubility (mole fraction) (in water, 322.65 K): 0.000611
- solubility (mole fraction) (in water, 327.15 K): 0.00078
- solubility (mole fraction) (in water, 332.65 K): 0.00104
